The nature of this data set: Solubility. The class given is physicochemical. As to conditions: precipitation at higher concentrations in the assay.

Turning to `O=C(Nc1ccc(-c2ccccc2)cc1)Nc1ccc(-c2ccnc3[nH]cnc23)cc1` [Compound 17], the solubility result is “poor solubility”.

The values are drawn from article PMC4481867 (Bioorganic & medicinal chemistry letters, 2012).
